Here are results for three compounds from patent publication US10844013B2, “Phenyl amino piperidine mTORC inhibitors and uses thereof” (Navitor Pharmaceuticals, Inc., priority 2016, dated 2020).

Holding throughout (assay type): cell-based
For test [1], the system named is pAKT (p-Akt 1/2/3 (Ser473)) in MCF-7 cells. The experiment in a line: AlphaLISA Ultra pAKT assay. Conditions: Homo sapiens, MCF7, 2 hours compound incubation. Summed up:
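MCF-7 cells seeded 20-24 h, medium refreshed for 2 h, then treated with compounds for 2 h at 0.5% final DMSO. Lysates frozen at −80 °C, then pAKT detected by AlphaLISA with acceptor and donor beads, 2 h each.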

Test [2] relates to pS6K1 (p-p70 S6 Kinase (Thr389)) in MCF-7 cells. Kind of test: AlphaLISA Ultra pS6K1 assay. The note with it: Homo sapiens, MCF7, 2 h, 2 hours compound incubation. A digest of the protocol:
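MCF-7 cells seeded 20–24 h, medium refreshed 2 h, then treated 2 h with compound (0.5% DMSO final). Lysates probed for Thr389-phosphorylated p70 S6K by AlphaLISA Ultra, 2 h acceptor then 2 h donor bead incubation, read on a multimode reader.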

Test [3] has as its system MCF-7 cells. The experiment in a line: Radioactive glucose uptake in MCF-7 cells. The note with it: Homo sapiens, MCF7, 3H-2DG uptake. The protocol:
Example 157: Radioactive Glucose Uptake in MCF-7 Cells
Assay Protocol • 1. Seed approximately 12,000 MCF-7 cells cultured without insulin per well in 96-well plates (BIOCOAT, #356690) and let the cells sit in hood for 30 min. (Cell culture medium: DMEM+10% FBS). • 2. Put the cell culture plates in TC incubator (5% CO2, 37° C.) and incubate overnight. • 3. Take out the cell plates and wash with prewarmed KRH buffer (37° C.) three times using BioTek plate washer. (KRH buffer preparation: 136 mM NaCl, 4.7 mM KCl, 1.25 mM MgCl2, 1.2 mM CaCl2), 20 mM HEPES, 0.1 mg/ml sodium pyruvate, 0.1% BSA, pH 7.4). • 4. Compound preparation and treatment: • a) Add 12 ul compound stock in 100% DMSO to the first column of Echo LDV plate • b) Serially dilute the compound solution in 100% DMSO (4 uL+8 uL DMSO) using Bravo for 9 doses • c) Dispense 350 nL compounds using Echo to the working plate. • d) i) Without compound preincubation condition, dispense 116 uL KRH buffer containing tritiated 2-deoxy-D-glucose (3H-2DG) and 2-deoxy-D-glucose (2DG) to the working plate and mix. • ii. With compound preincubation condition, dispense 110 uL KRH buffer only to the working plates and mix • e) Keep the compound working plate at 37° C. incubator until use • 5. Discard the KRH buffer (cells were kept in KRH buffer for 10-15 min before 2-DG addition) and transfer 100 uL compound working solution out to the cell culture plate using Bravo. Incubate for 20 mins at 37° C. (2DG final at 0.2 mM, 3H-2DG at 10 uCi/mL). • 6. Add prewarmed 50 uL KRH buffer (37° C.) containing 60 mM cold 2DG to the wells to stop the 2DG uptake using Multidrop combi • 7. Wash the cells with prewarmed PBS three times using BioTek plate washer • 8. Add 50 uL lysis buffer (0.1 M NaOH) into the assay plate to lyse the cells using Bravo and shake at 800 rpm for 30 min. • 9. Mix and transfer 20 uL lysate to a new white plate (Corning, #3610) and add 200 uL MicroScint-20 using Bravo • 10. Shake the plate at 1000 rpm for 30 min and count in a MicroBeta plate reader.

A further test has as its system 293T cells. Kind of test: ATP/Rotenone assay, glucose dose response, 293T cells. Conditions: Homo sapiens, HEK-293T, 10 uM rotenone pre-treat, 15 min glucose, Celltiter-Glo. The method, then: (§1) Example 158: ATP/Rotenone Assay
(§2) Day 1: Plate cells in Corning 96-Well Clear Bottom Black Polystyrene Microplates (corning 3340) in Glucose-free DMEM+10% dFBS • 80 uL/well • 25,000 cells/well for 293T • 10,000 cells/well for MCF7
(§3) Glucose DR to Establish Glucose EC50
(§4) • 1. […] Determine Compound IC50s • 1. 1 h pre-treat Rotenone/compound solution • Make 9× (90 uM) rotenone: 10 mM stock of Rotenone fresh—dilute 1:111× in Glucose-free DMEM). • Make compound dilution series in DMSO then dilute 1:111 in 90 uM rotenone in glucose-free media • Add 10 uL of 9× rotenone/compound solutions per well • 2. Stimulate with glucose for 15 min • Make glucose DR at 10× concentration in glucose-free DMEM • Add 10 uL per well and incubate at 37° C. for 15 min 3. Reconstitute and Measure • Remove plate, immediately add 100 uL of reconstituted Celltiter-Glo reagent (Promega; G7570) per well • Shake plate covered for 10 min at room temperature • Let plate sit for 2-5 min, read luminescence • Calculate IC50 for compounds
For orientation: Cellular ATP, detected with luciferase, serves as a proxy for viable cell number.

For test [4], the system named is MCF-7 cells. The experiment in a line: ATP/Rotenone assay, glucose dose response, MCF-7 cells. The note with it: Homo sapiens, MCF7, 10 uM rotenone pre-treat, 15 min glucose, Celltiter-Glo. The protocol:
as §1, §2, §3, §4

A value given as a limit tells only on which side of the number the result lay.

As usually defined, the IC50 is the concentration that gives 50% inhibition. Regarding `Cc1cc(C)c(C(=O)N2CCN(c3cccnn3)[C@H](CN)C2)c(C)c1NC1CCN(c2ccccc2C#N)CC1` [I-194, (R)-2-(4-(3-(3-(aminomethyl)-4-(pyridazin-3-yl)piperazine-1-carbonyl)-2,4,6-trimethylphenylamino)piperidin-1-yl)benzonitrile], the IC50 was over 10 µM in test [1], 0.01 to 1 µM in test [2] and 0.01 to 1 µM in the test with MCF-7 cells [3].

Turning to `Cc1cc(C)c(C(=O)N2CCN(c3cccnn3)[C@H](CN)C2)c(C)c1NC1CCN(c2ccc(F)cc2C#N)CC1` [I-195, (R)-2-(4-(3-(3-(aminomethyl)-4-(pyridazin-3-yl)piperazine-1-carbonyl)-2,4,6-trimethylphenylamino)piperidin-1-yl)-5-fluorobenzonitrile], the concentration for half-maximal inhibition (IC50) was over 10 µM in test [1], 1 to 3 µM in test [2] and 3 to 5 µM with MCF-7 cells [3].

The EC50 is the concentration at which the effect is half-maximal. On to `O=C[C@H](O)[C@@H](O)[C@H](O)[C@H](O)CO` [glucose], for which the values for the EC50 in the test on 293T cells and in the test with MCF-7 cells [4] were about 1000 µM and about 250 µM, respectively.
